Experimental data from ChEMBL document CHEMBL5241051, “Phthalimide analogs for antimalarial drug discovery” (RSC Med Chem, 2021).

Columns and labels:
Plasmodium falciparum [1] = assay: Antiplasmodial activity against chloroquine resistant Plasmodium falciparum 7GB assessed as inhibition of parasite growth incubated for 48 hrs by SYBR green I staining based fluorescence assay; format: functional, organism-based
Plasmodium falciparum [2] = assay: Antiplasmodial activity against Plasmodium falciparum 3D7 assessed as inhibition of parasite growth incubated for 48 hrs by SYBR green I staining based fluorescence assay; format: functional, organism-based; conditions: 3D7, 48 h
Plasmodium falciparum [3] = assay: Antiplasmodial activity against chloroquine resistant Plasmodium falciparum W2 infected in erythrocytes (unknown origin) assessed as inhibition of parasite growth incubated for 90 hrs by SYBR green staining based fluorescence assay; format: functional, organism-based; conditions: W2, Erythrocyte
Plasmodium falciparum [4] = assay: Antiplasmodial activity against chloroquine sensitive Plasmodium falciparum 3D7 infected in erythrocytes (unknown origin) assessed as inhibition of parasite growth incubated for 90 hrs by SYBR green staining based fluorescence assay; format: functional, organism-based; conditions: 3D7, Erythrocyte
Plasmodium berghei [5] = assay: Antimalarial activity against GFP-expressing liver stage Plasmodium berghei ANKA sporozoites infected in human HepG2 cells assessed as inhibition of parasite growth incubated for 2 days by imaging analysis; format: functional, organism-based; conditions: HepG2, 48 h
[6] = Cytotoxicity against human U-937 cells assessed as inhibition of cell growth incubated for 24 hrs by Celltiter-Glo assay; format: toxicity, cell-based
[7] = Inhibition of Plasmodium falciparum plasmepsin V
[8] = Inhibition of Plasmodium falciparum plasmepsin X
[9] = Inhibition of Plasmodium falciparum plasmepsin IV assessed as substrate cleavage preincubated with enzyme for 5 mins followed by substrate addition and measured immediately by spectrophotometric analysis
Plasmodium berghei [10] = assay: Antimalarial activity against GFP-expressing Plasmodium berghei ANKA infected in mouse assessed as survival rate at 50 mg/kg, sc pre-infected for 2 hrs followed by compound addition; format: functional
Plasmodium falciparum [11] = assay: Antiplasmodial activity against chloroquine sensitive Plasmodium falciparum D6 infected in erythrocytes (unknown origin) incubated for 72 hrs by SYBR green I staining based fluorescence assay; format: functional, organism-based; conditions: D6, Erythrocyte
Plasmodium falciparum [12] = assay: Antiplasmodial activity against Plasmodium falciparum RKL-9 stage I-V gametocytes assessed as reduction in parasitemia incubated for 72 hrs by giemsa staining based analysis; conditions: RKL-9, 72 h
Plasmodium falciparum [13] = assay: Antiplasmodial activity against multidrug resistant Plasmodium falciparum Dd2 infected in erythrocytes (unknown origin) incubated for 72 hrs by SYBR green I staining based fluorescence assay; format: functional, organism-based; conditions: Dd2, Erythrocyte
[14] = Cytotoxicity against human PBMC cells assessed as inhibition of cell growth incubated for 24 hrs by Celltiter-Glo assay; format: toxicity, cell-based
[15] = Inhibition of Plasmodium falciparum plasmepsin II assessed as substrate cleavage preincubated with enzyme for 5 mins followed by substrate addition and measured immediately by spectrophotometric analysis
Plasmodium falciparum [16] = assay: Antiplasmodial activity against chloroquine sensitive Plasmodium falciparum 3D7 assessed as reduction in [3H]-hypoxanthine incorporation by liquid scintillation beta counter analysis; format: functional, organism-based
Plasmodium berghei [17] = assay: Antimalarial activity against chloroquine resistant Plasmodium berghei NK-65 infected RBC infected in Swiss albino mouse assessed as survival rate at 100 mg/kg, sc pre-infected for 48 hrs followed by compound addition for 4 days in the presence of artemisinin; format: functional; conditions: time 4 day
[18] = Selectivity index, ratio of CC50 for cytotoxicity against human HepG2 cells to IC50 for […] activity against Plasmodium falciparum 3D7; format: toxicity, cell-based; conditions: read-out: Ratio CC50/IC50
Plasmodium falciparum [19] = assay: Antiplasmodial activity against Plasmodium falciparum 3D7 infected in erythrocytes (unknown origin) assessed as inhibition of parasite growth by SYBR green staining based fluorescence assay; format: functional, organism-based; conditions: 3D7, Erythrocyte
[20] = Cytotoxicity against human HepG2 cells assessed as reduction in cell viability incubated for 24 hrs by MTT assay; format: toxicity, cell-based
Plasmodium falciparum [21] = assay: Inhibition of Plasmodium falciparum 3D7 cytochrome bc1 oxidoreductase using decylubiquinol as substrate at 70 uM relative to control

For `O=C(N[C@H](Cc1ccccc1)[C@@H](O)CN1CCN(Cc2ccc(F)cc2)CC1)[C@@H](Cc1ccccc1)N1C(=O)c2ccccc2C1=O`, the IC50 (Plasmodium falciparum [1]) was 2990 nM and the IC50 (Plasmodium falciparum [2]) was 1330 nM.

`CC(C)CC(c1nc2ccccc2n1Cc1cnn[nH]1)N1C(=O)c2ccccc2C1=O` (stereo not drawn) showed an IC50 (Plasmodium falciparum [3]) of 900 nM and an IC50 (Plasmodium falciparum [4]) of 700 nM.

In the case of `CC(C)CC(c1nc2ccccc2n1Cc1cnnn1-c1ccccc1)N1C(=O)c2ccccc2C1=O` (stereo not drawn), the IC50 (Plasmodium falciparum [3]) is reported as 700 nM and the IC50 (Plasmodium falciparum [4]) is reported as 900 nM.

In the case of `Cc1ccc2c(c1)C(=O)N(C(Cc1ccccc1)C(=O)NC(Cc1ccccc1)C(O)CN1CCN(CC(O)C(Cc3ccccc3)NC(=O)C(Cc3ccccc3)N3C(=O)c4ccc(C)cc4C3=O)CC1)C2=O` (stereo not drawn), the IC50 (Plasmodium berghei [5]) is reported as 2100 nM, the CC50 at 24 h [6] is reported as 26400 nM and the Ki [7] is reported as 530 nM. The Ki [8] was 3830 nM, the Ki [9] was 252 nM and the Survival (Plasmodium berghei [10]) was 20 days. It also gave an IC50 (Plasmodium falciparum [11]) of 910 nM, an IC50 (Plasmodium falciparum [12]) of 1680 nM and an IC50 (Plasmodium falciparum [13]) of 600 nM. For the same compound, the CC50 at 24 h [14] was 11100 nM, the Ki [15] was 112 nM and the IC50 (Plasmodium falciparum [16]) was 1310 nM. For the same compound, the Survival (Plasmodium berghei [17]) was 15 days.

In the case of `O=C(N[C@H](Cc1ccccc1)[C@@H](O)CN1CCN(C[C@H](O)[C@@H](Cc2ccccc2)NC(=O)[C@@H](Cc2ccccc2)N2C(=O)c3ccccc3C2=O)CC1)[C@@H](Cc1ccccc1)N1C(=O)c2ccccc2C1=O`, the IC50 (Plasmodium falciparum [1]) is reported as 2990 nM and the IC50 (Plasmodium falciparum [2]) is reported as 1300 nM.

For `COc1ccc(N2C(=O)c3cccc(NCc4ccccc4)c3C2=O)cc1`, the selectivity ratio [18] was greater than 59, the IC50 (Plasmodium falciparum [19]) was 6800 nM and the CC50 at 24 h [20] was greater than 250000 nM.

In the case of `CC(C)(C)OC(=O)N[C@H](Cc1ccccc1)[C@@H](O)CN1CCC(N2CCCCC2)CC1`, the IC50 (Plasmodium falciparum [1]) is reported as 2990 nM and the IC50 (Plasmodium falciparum [2]) is reported as 1160 nM.

For `CC[C@H](C)[C@@H](C(=O)N[C@H](Cc1ccccc1)[C@@H](O)CN1CCN(C[C@H](O)[C@@H](Cc2ccccc2)NC(=O)[C@H]([C@@H](C)CC)N2C(=O)c3ccccc3C2=O)CC1)N1C(=O)c2ccccc2C1=O`, the Ki [15] was 990 nM.

`CC(C)[C@H](C(=O)N[C@H](Cc1ccccc1)[C@@H](O)CN1CCN(C[C@H](O)[C@@H](Cc2ccccc2)NC(=O)[C@@H](C(C)C)N2C(=O)c3ccccc3C2=O)CC1)N1C(=O)c2ccccc2C1=O` showed a Ki [9] of 3300 nM.

For `CC(C)[C@@H](C(=O)N[C@H](Cc1ccccc1)[C@@H](O)CN1CCN(Cc2ccc(Br)cc2)CC1)N1C(=O)c2ccccc2C1=O`, the IC50 (Plasmodium falciparum [2]) was 1250 nM.

In the case of `COc1ccc(N2C(=O)c3cccc(N)c3C2=O)cc1`, the selectivity ratio [18] is reported as greater than 36, the inhibition (Plasmodium falciparum [21]) is reported as 74% and the IC50 (Plasmodium falciparum [19]) is reported as 4200 nM. It also gave a CC50 at 24 h [20] greater than 250000 nM.
